From patent US20240285548A1, “AGENT FOR PREVENTION AND/OR TREATMENT OF COGNITIVE IMPAIRMENT” (NATIONAL CEREBRAL AND CARDIOVASCULAR CENTER, priority 2022, published 2024)

Experiments:
[1] = tested on: patients with asymptomatic moderate or severe carotid artery stenosis/occlusion; assay: Adverse events during long-term resveratrol intake; type: in vivo, human; details: Example 2, 30 mg/day
Description: The baseline mean total MoCA scores were 23.6±3.6 in the non-RES group and 23.7±3.6 in the RES group. Further, the mean total ADAS-Cog scores were 14.6±5.4 in the non-RES group and 15.8±7.2 in the RES group. The mean observation periods were 244.8±86.9 and 221.2±61.9 days, respectively (p=0.18). The baseline scores were under the category of mild cognitive impairment (MCI) (Table 4).
To identify the reason associated with significant improvements in the visuospatial cognitive function, executive function, and memory in the RES group, cerebral blood flow was measured. Initially, the cerebral blood flow change in each entire hemisphere was analyzed. […] To examine the changes in detail, the cerebral blood flow was analyzed in terms of the frontal lobe, basal ganglia, and thalamus, which govern the visuospatial cognitive and executive functions, and memory. Longitudinally, long-term resveratrol intake was associated with a significant increase in cerebral blood flow in the right frontal lobe (non-RES group: 0.001±0.037, RES group: 0.019±0.033; p=0.027)). […] Therefore, long-term resveratrol intake may contribute not only to improvement of cognitive function but also to increase in cerebral blood flow.

[2] = tested on: patients with asymptomatic moderate or severe carotid artery stenosis/occlusion; assay: Montreal Cognitive Assessment (MoCA), change during observation period; type: in vivo, human; details: for β, resveratrol intake vs MoCA visuospatial cognitive function/executive function change: 79 patients, linear regression
Procedure: (§1) Subjects were patients with asymptomatic moderate or severe carotid artery stenosis/occlusion who visited the National Cerebral and Cardiovascular Center in Japan from July 2020 to August 2021 and who were taking or not taking trans-resveratrol in an amount of 30 mg/day. The inclusion criteria were as follows: (1) patients with asymptomatic moderate or severe carotid artery stenosis/occlusion who presented with a peak systolic velocity of 130 cm/s or more at a stenotic lesion on carotid ultrasonography (corresponding to a stenotic diameter of >50%) and who underwent test (2) and/or (3); (2) patients who underwent cognitive function tests (Alzheimer's Disease Assessment Scale-Cognitive subscale 13 (ADAS-Cog) and Montreal Cognitive Assessment (MoCA)) longitudinally twice; (3) patients who also underwent ^15O-gas positron emission tomography (PET) longitudinally twice in a similar manner. The primary outcome is a comparison of the amounts of change in ADAS-Cog during the observation period (differential analysis). The secondary outcomes are (1) a comparison of the amounts of change in MoCA during the observation period (differential analysis), and (2) a comparison of the amounts of change in cerebral blood flow on ^15O -gas PET (differential analysis). This study was initiated after receiving approval from the Research Ethics Review Committee of the National Cerebral and Cardiovascular Center (Research Project Number: R20113). In Example 1 above, the 82 subject patients included patients who were tested for both change in cognitive function and change in cerebral blood flow, as well as patients who were tested for only either change in cognitive function or change in cerebral blood flow. Therefore, based on the above results, the same analysis as in Example 1 was performed again on 79 patients who were tested for both change in cognitive function and change in cerebral blood flow from among the 82 patients. […] The baseline mean total MoCA scores were 23.6±3.6 in the non-RES group and 23.7±3.6 in the RES group. Further, the mean total ADAS-Cog scores were 14.6±5.4 in the non-RES group and 15.8±7.2 in the RES group. The mean observation periods were 244.8±86.9 and 221.2±61.9 days, respectively (p=0.18). The baseline scores were under the category of mild cognitive impairment (MCI) (Table 4). For the 79 patients, the amount of change in MoCA and ADAS-Cog scores was examined to investigate changes in cognitive function associated with administration of resveratrol. […] According to ADAS-Cog, a significant association was found with cognitive function improvement in the RES group in terms of delayed recall (0.5±1.6 VS. −0.9±1.8; p=0.001), memory domain (0.4±3.3 VS. −1.6±3.1; p=0.007), and total score (0.5±3.7 vs. −1.5±3.4; p=0.019). Therefore, after adjusting for age, gender, hypertension, diabetes, dyslipidemia, and coronary artery disease, a multivariate linear regression model analysis was performed. Resveratrol intake was an independent predictor of improvement in spatial cognitive and executive functions (β=0.26, 95% confidence interval [CI]: 0.062-1.15, p=0.03) and memory (memory domain: β=−0.26, 95% CI: −3.23 to −0.15, p=0.032; delayed recall: β=−0.37, 95% CI: −2.16 to −0.54, p=0.001) (Table 5). Accordingly, resveratrol may have contributed to improvement in the visuospatial cognitive function, executive function, and memory.

[3] = tested on: patients with asymptomatic moderate or severe carotid artery stenosis/occlusion; assay: 15O-gas PET: cerebral blood flow, cerebral oxygen metabolic rate, cerebral oxygen uptake rate; type: in vivo, human; set-up: Cerebral blood flow change: entire right hemisphere / Cerebral blood flow change: entire left hemisphere / Cerebral blood flow change: right frontal lobe / Cerebral blood flow change: right callosomarginal artery area / Cerebral blood flow change: left callosomarginal artery area / Cerebral blood flow change: left lenticular nucleus / Cerebral blood flow change: left thalamus: unit not given here; details: for β, resveratrol intake vs cerebral blood flow change: Frontal circulation area / β, resveratrol intake vs cerebral blood flow change: Left callosomarginal artery area / β, resveratrol intake vs cerebral blood flow change: Left lenticular nucleus / β, resveratrol intake vs cerebral blood flow change: Right callosomarginal artery area / β, resveratrol intake vs cerebral blood flow change: Right precentral artery / β, resveratrol intake vs cerebral blood flow change: Thalamus, Left / β, resveratrol intake vs cerebral blood flow change: Thalamus, Right: 79 patients, linear regression
Procedure: Subjects were patients with asymptomatic moderate or severe carotid artery stenosis/occlusion who visited the National Cerebral and Cardiovascular Center in Japan from July 2020 to August 2021 and who were taking or not taking trans-resveratrol in an amount of 30 mg/day. The inclusion criteria were as follows: (1) patients with asymptomatic moderate or severe carotid artery stenosis/occlusion who presented with a peak systolic velocity of 130 cm/s or more at a stenotic lesion on carotid ultrasonography (corresponding to a stenotic diameter of >50%) and who underwent test (2) and/or (3); (2) patients who underwent cognitive function tests (Alzheimer's Disease Assessment Scale-Cognitive subscale 13 (ADAS-Cog) and Montreal Cognitive Assessment (MoCA)) longitudinally twice; (3) patients who also underwent ^15O-gas positron emission tomography (PET) longitudinally twice in a similar manner. The primary outcome is a comparison of the amounts of change in ADAS-Cog during the observation period (differential analysis). The secondary outcomes are (1) a comparison of the amounts of change in MoCA during the observation period (differential analysis), and (2) a comparison of the amounts of change in cerebral blood flow on ^15O -gas PET (differential analysis). This study was initiated after receiving approval from the Research Ethics Review Committee of the National Cerebral and Cardiovascular Center (Research Project Number: R20113). All PET images were anatomically standardized using linear and nonlinear transformations with SPM2 to ensure that the brain images of all patients had the same anatomical format, and the cerebral blood flow was quantified using 3DSRT (PDRadiopharma Inc., Tokyo, Japan). Each hemisphere was divided into twelve ROI segments, grouped according to the arterial supply: callosomarginal artery area, pericallosal artery area, precentral artery area, central artery area, angular artery area, parietal lobe, temporal lobe, occipital lobe, hippocampus, lenticular nucleus, thalamus, and cerebellum. The frontal circulation areas were defined to be the callosomarginal artery area, pericallosal artery area, precentral artery area, and central artery area. In quantifying the relative cerebral blood flow, counts under each ROI were normalized to an average cerebral blood flow count within the bilateral cerebellum. […] Using 3D-SRT (FUJIFILM RI Pharma, Tokyo, Japan), the difference in the amount of change was analyzed (for the RES group, the difference between the cerebral blood flow before RES administration (relative to cerebellum) and the cerebral blood flow after RES administration (relative to cerebellum); for the non-RES group, the cerebral blood flow at intervals of 6 months to 1 year (relative to cerebellum)). […] In Example 1 above, the 82 subject patients included patients who were tested for both change in cognitive function and change in cerebral blood flow, as well as patients who were tested for only either change in cognitive function or change in cerebral blood flow. Therefore, based on the above results, the same analysis as in Example 1 was performed again on 79 patients who were tested for both change in cognitive function and change in cerebral blood flow from among the 82 patients. To identify the reason associated with significant improvements in the visuospatial cognitive function, executive function, and memory in the RES group, cerebral blood flow was measured. Initially, the cerebral blood flow change in each entire hemisphere was analyzed. […] To examine the changes in detail, the cerebral blood flow was analyzed in terms of the frontal lobe, basal ganglia, and thalamus, which govern the visuospatial cognitive and executive functions, and memory. Longitudinally, long-term resveratrol intake was associated with a significant increase in cerebral blood flow in the right frontal lobe (non-RES group: 0.001±0.037, RES group: 0.019±0.033; p=0.027)). […]

[4] = tested on: human Alzheimer's patients; details: 500 mg of resveratrol; NPL 5; cited from earlier work
[5] = tested on: patients with asymptomatic moderate or severe carotid artery stenosis/occlusion; assay: Alzheimer's Disease Assessment Scale-Cognitive subscale 13 (ADAS-Cog), change during observation period; type: in vivo, human; details: for β, resveratrol intake vs ADAS-Cog delayed recall change / β, resveratrol intake vs ADAS-Cog memory domain change / β, resveratrol intake vs ADAS-Cog total change: 79 patients, linear regression
Procedure: as §1

[6] = tested on: carotid artery occlusion model mice; details: NPL 3; cited from earlier work
[7] = Example 1, RES group 37 of 82 patients, 30 mg/day
[8] = Example 2, RES group n = 36 of 79 patients, 30 mg/day
[9] = Example 1, relative to cerebellum, before vs after RES administration, 30 mg/day
[10] = Example 2, multivariable analysis
[11] = Example 2, univariable analysis
[12] = Example 2, multivariate analysis

SMILES: Oc1ccc(/C=C/c2cc(O)cc(O)c2)cc1 [resveratrol, 3,4′, 5-trihydroxy-trans-stilbene]
- Adverse events [1]: no adverse events observed
- Amount of change in MoCA: Executive function/spatial cognitive function [2, 7]: 0.35 ± 1.0
- β, resveratrol intake vs MoCA visuospatial cognitive function/executive function change ([2]; Example 2, multivariate analysis adjusted for age, gender, hypertension, diabetes, dyslipidemia, coronary artery disease): 0.26
- β, resveratrol intake vs MoCA visuospatial cognitive function/executive function change ([2]; Example 2, univariate analysis): 0.257
- Amount of change in MoCA: visuospatial cognitive and executive functions [2, 8]: 0.4±0.9
- Amount of change in total MoCA score [2, 8]: 0.4±2.6
- Cerebral oxygen uptake rate ([3]; Example 1, 30 mg/day): no association
- Cerebral oxygen metabolic rate ([3]; Example 1, all areas, 30 mg/day): tendency for an association between RES intake and an increase in the cerebral oxygen metabolic rate
- Cerebral blood flow in other areas ([3]; Example 1, areas other than those of Table 3, relative to cerebellum): tendency for an association between RES intake and an increase in the cerebral blood flow
- Amount of change in cerebral blood flow: Left callosomarginal artery area [3, 9]: 0.171 ± 0.42
- Amount of change in cerebral blood flow: Left putamen [3, 9]: 0.19 ± 0.57
- Amount of change in cerebral blood flow: Left thalamus [3, 9]: 0.449 ± 0.90
- Amount of change in cerebral blood flow: Right callosomarginal artery area [3, 9]: 0.179 ± 0.34
- Amount of change in cerebral blood flow: Right frontal lobe [3, 9]: 0.215 ± 0.35
- Amount of change in cerebral blood flow: Right thalamus [3, 9]: 0.393 ± 0.85
- β, resveratrol intake vs cerebral blood flow change: Frontal circulation area [3, 10]: 0.25
- β, resveratrol intake vs cerebral blood flow change: Left callosomarginal artery area [3, 10]: 0.27
- β, resveratrol intake vs cerebral blood flow change: Left lenticular nucleus [3, 10]: 0.31
- β, resveratrol intake vs cerebral blood flow change: Right callosomarginal artery area [3, 10]: 0.29
- β, resveratrol intake vs cerebral blood flow change: Right precentral artery [3, 10]: 0.25
- β, resveratrol intake vs cerebral blood flow change: Thalamus, Left [3, 10]: 0.29
- β, resveratrol intake vs cerebral blood flow change: Thalamus, Right [3, 10]: 0.23
- β, resveratrol intake vs cerebral blood flow change: Frontal circulation area [3, 11]: 0.25
- β, resveratrol intake vs cerebral blood flow change: Left callosomarginal artery area [3, 11]: 0.24
- β, resveratrol intake vs cerebral blood flow change: Left lenticular nucleus [3, 11]: 0.29
- β, resveratrol intake vs cerebral blood flow change: Right callosomarginal artery area [3, 11]: 0.28
- β, resveratrol intake vs cerebral blood flow change: Right precentral artery [3, 11]: 0.25
- β, resveratrol intake vs cerebral blood flow change: Thalamus, Left [3, 11]: 0.29
- β, resveratrol intake vs cerebral blood flow change: Thalamus, Right [3, 11]: 0.24
- Cerebral blood flow change: entire left hemisphere [3, 8]: 0.014±0.031
- Cerebral blood flow change: entire right hemisphere [3, 8]: 0.016±0.032
- Cerebral blood flow change: left callosomarginal artery area [3, 8]: 0.017±0.042
- Cerebral blood flow change: left lenticular nucleus [3, 8]: 0.033±0.06
- Cerebral blood flow change: left thalamus [3, 8]: 0.045±0.090
- Cerebral blood flow change: right callosomarginal artery area [3, 8]: 0.018±0.034
- Cerebral blood flow change: right frontal lobe [3, 8]: 0.019±0.033
- Cerebral blood flow change: right precentral artery area [3, 8]: 0.021±0.035
- Cerebral blood flow change: right thalamus [3, 8]: 0.039±0.85
- Effect in human Alzheimer's patients [4]: no effect was observed
- Amount of change in ADAS-Cog: Total [5, 7]: −1.48 ± 3.4
- Amount of change in ADAS-Cog: delayed recall [5, 7]: −0.89 ± 1.7
- Amount of change in ADAS-Cog: memory domain [5, 7]: −1.65 ± 3.0
- β, resveratrol intake vs ADAS-Cog delayed recall change [5, 12]: −0.37
- β, resveratrol intake vs ADAS-Cog memory domain change [5, 12]: −0.26
- β, resveratrol intake vs ADAS-Cog total change [5, 12]: −0.18
- β, resveratrol intake vs ADAS-Cog delayed recall change ([5]; Example 2, univariate analysis): −0.37
- β, resveratrol intake vs ADAS-Cog memory domain change ([5]; Example 2, univariate analysis): −0.30
- β, resveratrol intake vs ADAS-Cog total change ([5]; Example 2, univariate analysis): −0.26
- Amount of change in ADAS-Cog: delayed recall [5, 8]: −0.9±1.8
- Amount of change in ADAS-Cog: memory domain [5, 8]: −1.6±3.1
- Amount of change in ADAS-Cog: total score [5, 8]: −1.5±3.4
- Autophagy [6]: activation of autophagy
- Cognitive function [6]: improvement in cognitive function
- Oxidative stress-induced nerve damage [6]: reduced oxidative stress-induced nerve damage
